ChEMBL document CHEMBL3400049, “Design strategies to address kinetics of drug binding and residence time” (Bioorg Med Chem Lett, 2015)

What was measured:
[1] = biological target: CDK8/Cyclin C (Homo sapiens) (UniProt P49336+P24863); assay: Binding affinity to CDK8/CycC (unknown origin) assessed as residence time; assay type: protein-complex assay
[2] = biological target: Histone-lysine N-methyltransferase EZH2 (Homo sapiens) (UniProt Q15910); assay: Binding affinity to EZH2 (unknown origin) assessed as residence time
[3] = biological target: T1, Fatty-acid amide hydrolase 1 (Homo sapiens) (UniProt O00519); assay: Inhibition of recombinant human FAAH assessed as dissociation half life
T1 sequence (whole entry): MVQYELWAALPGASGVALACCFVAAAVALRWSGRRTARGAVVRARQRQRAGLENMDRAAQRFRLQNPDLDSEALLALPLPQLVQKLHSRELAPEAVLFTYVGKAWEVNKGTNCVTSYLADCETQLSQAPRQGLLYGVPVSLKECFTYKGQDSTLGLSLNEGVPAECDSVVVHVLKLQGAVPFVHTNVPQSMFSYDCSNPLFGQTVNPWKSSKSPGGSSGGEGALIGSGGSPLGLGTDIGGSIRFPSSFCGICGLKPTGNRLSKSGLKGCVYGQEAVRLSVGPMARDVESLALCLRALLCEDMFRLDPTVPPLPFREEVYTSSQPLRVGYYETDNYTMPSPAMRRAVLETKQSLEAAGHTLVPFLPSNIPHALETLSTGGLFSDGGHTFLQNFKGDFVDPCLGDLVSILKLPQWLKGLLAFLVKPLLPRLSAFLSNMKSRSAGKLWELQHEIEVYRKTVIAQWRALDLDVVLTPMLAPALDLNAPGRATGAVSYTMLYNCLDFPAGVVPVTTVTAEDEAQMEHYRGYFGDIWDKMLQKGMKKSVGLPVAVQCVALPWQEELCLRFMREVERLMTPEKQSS

Sequence of Histone-lysine N-methyltransferase EZH2 (Homo sapiens) (Q15910 whole entry, looked up): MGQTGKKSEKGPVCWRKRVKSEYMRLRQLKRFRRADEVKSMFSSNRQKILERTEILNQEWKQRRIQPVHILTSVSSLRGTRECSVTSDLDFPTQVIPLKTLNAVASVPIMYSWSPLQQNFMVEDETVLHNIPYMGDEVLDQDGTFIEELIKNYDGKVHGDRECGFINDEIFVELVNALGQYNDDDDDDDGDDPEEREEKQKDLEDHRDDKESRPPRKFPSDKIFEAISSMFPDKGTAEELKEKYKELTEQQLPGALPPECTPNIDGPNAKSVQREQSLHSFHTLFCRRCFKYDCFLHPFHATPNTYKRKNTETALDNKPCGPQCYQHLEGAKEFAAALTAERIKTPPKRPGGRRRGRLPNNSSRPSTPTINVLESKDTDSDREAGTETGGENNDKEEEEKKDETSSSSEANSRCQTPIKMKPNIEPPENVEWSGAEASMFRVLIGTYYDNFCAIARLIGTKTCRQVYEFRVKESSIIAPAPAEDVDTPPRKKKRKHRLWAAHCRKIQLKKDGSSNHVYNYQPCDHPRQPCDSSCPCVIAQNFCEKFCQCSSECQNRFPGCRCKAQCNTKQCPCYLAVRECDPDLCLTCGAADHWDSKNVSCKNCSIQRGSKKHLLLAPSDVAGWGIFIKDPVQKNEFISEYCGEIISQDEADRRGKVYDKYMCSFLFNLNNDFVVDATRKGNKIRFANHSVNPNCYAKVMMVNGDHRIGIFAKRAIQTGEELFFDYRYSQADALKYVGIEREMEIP

Cc1ccc(-n2nc(C(C)(C)C)cc2NC(=O)NCCN2CCN(C(=O)Nc3cc(C(C)(C)C)nn3-c3ccc(C)cc3)CC2)cc1
TIME [1]: 27.1 h

Cc1ccc(CNC(=O)c2cc(-c3ccnc(N4CCN(C)CC4)c3)cc3c2ccn3C(C)C)c(=O)[nH]1
TIME [2]: 1.03 h

O=C(CCCCCCc1ccccc1)c1nc2ncccc2o1
T1/2 [3]: > 10 h

CCCc1cc(C)[nH]c(=O)c1CNC(=O)c1cc(-c2ccnc(N3CCN(C)CC3)c2)cc2c1ccn2C(C)C
TIME [2]: 0.717 h

O=C(CCCCCCc1ccccc1)c1ncc(-c2ccccn2)o1
T1/2 [3]: > 10 h

Cc1ccc(-n2nc(C(C)(C)C)cc2NC(=O)NCCN2CCOCC2)cc1
TIME [1]: < 0.0233 h
